These results are taken from patent US20250367332A1, “PSMA-TARGETED RADIOACTIVE METAL COMPLEX CONTAINING NITROAROMATIC HETEROCYCLIC GROUP AND PREPARATION METHOD” (BEIJING NORMAL UNIVERSITY, priority 2023, published 2025).

This assay concerns 22RV1-FOLH1-oe cells. Put plainly: In vitro cell uptake of 68Ga complexes over time in 22RV1-FOLH1-oe cells. The class given is cell-based. The following applies: for uptake-time profile (course of cellular uptake with prolonged incubation time): 37 KBq, 37° C., 15-120 minutes. As for the experimental part: (§1) […] A 500 μL aliquot was added to each well of six 12-well plates. Each group of wells was treated with 37 KBq of [^68Ga]Ga-AAZTA-NI-PSMA, [^68Ga]Ga-AAZTA-NI-PSMA-11, and [^68Ga]Ga-HBED-CC-PSMA-11 solution. Incubation proceeded at 37° C. At 15, 30, 60, 90, and 120 minutes, uptake was terminated with PBS. Cells were lysed with 1 M NaOH, and lysates were absorbed onto filter paper for radioactivity measurement in plastic tubes. Blocking was performed at 60 minutes using excess unlabeled PSMA-11. After incubation, uptake was terminated with PBS, cells were lysed with 1 M NaOH, and lysates were absorbed onto filter paper for radioactivity measurement in plastic tubes.
(§2) 22RV1-FOLH1-oe cells were suspended at a density of 1.5×10^5 cells/mL. A 500 μL aliquot was added to each well of six 12-well plates. Each group of wells was treated with 37 KBq of [^68Ga]Ga-AAZTA-NI-PSMA, [^68Ga]Ga-DOTA-NI-PSMA, [^68Ga]Ga-HBED-CC-NI-PSMA, and [^68Ga]Ga-HBED-CC-PSMA-11 solution. Incubation proceeded at 37° C. At 15, 30, 60, 90, and 120 minutes, uptake was terminated with PBS. Cells were lysed with 1 M NaOH, and lysates were absorbed onto filter paper for radioactivity measurement in plastic tubes. Blocking was performed at 60 minutes using excess unlabeled PSMA-11. After incubation, uptake was terminated with PBS, cells were lysed with 1 M NaOH, and lysates were absorbed onto filter paper for radioactivity measurement in plastic tubes.
as §1, with “three” for “six”, “[^68Ga]Ga-AAZTA-NI-PSMA-093” for “[^68Ga]Ga-AAZTA-NI-PSMA, [^68Ga]Ga-AAZTA-NI-PSMA-11,”
as §2, with “2×10^5” for “1.5×10^5”, “the following solutions: [^68Ga]Ga-HBED-CC-PSMA-11, [^68Ga]Ga-NI-HBED-CC-PSMA-11, [^68Ga]Ga-HBED-CC-PSMA-093,” for “[^68Ga]Ga-AAZTA-NI-PSMA, [^68Ga]Ga-DOTA-NI-PSMA, [^68Ga]Ga-HBED-CC-NI-PSMA,”, “[^68Ga]Ga-NI-HBED-CC-PSMA-093.” for “[^68Ga]Ga-HBED-CC-PSMA-11 solution.”

With `O=C([O-])CN(CCN(CC(=O)[O-])Cc1cc(CCC(=O)NCCCCCC(=O)NCCCC[C@H](NC(=O)N[C@@H](CCC(=O)O)C(=O)O)C(=O)O)ccc1[O-])Cc1cc(CCC(=O)O)ccc1[O-].[68Ga+3].[OH3+]` [[^68Ga]Ga-HBED-CC-PSMA-11], the “uptake-time profile (course of cellular uptake with prolonged incubation time)” value runs as follows: (Application Embodiment 1, 1×10^5 cells/mL, n=3 (FIG. 12)) “initially increased and subsequently decreased”; (Application Embodiment 2, 1.5×10^5 cells/mL, n=3 (FIG. 14)) “initially increased and subsequently decreased”; (Application Embodiment 3, 1×10^5 cells/mL, n=3 (FIG. 16)) “initially increased and subsequently decreased”; (Application Embodiment 4, 2×10^5 cells/mL, n=3 (FIG. 18)) “gradually increased”. Also, the “cellular uptake compared with the other radioactive metal complexes” value (Application Embodiment 1, versus [^68Ga]Ga-AAZTA-NI-PSMA and [^68Ga]Ga-AAZTA-NI-PSMA-11, all time points) is “significantly higher”.
